What was measured:
[1] = target: Sigma non-opioid intracellular receptor 1 (Rattus norvegicus, UniProt Q9R0C9); assay: Binding affinity to sigma 1 receptor in rat liver membrane; assay type: cell membranes
[2] = Binding affinity to sigma 2 receptor in rat liver membrane by saturation analysis; assay type: cell membranes
[3] = Displacement of [3H]PB28 from sigma 2 receptor in rat liver membrane; assay type: cell membranes
[4] = organism: Rattus norvegicus; assay: Selectivity for rat sigma 2 receptor over rat sigma1 receptor; conditions: tested as the 3H-labelled form
[5] = Displacement of [3H]DTG from sigma 2 receptor in rat liver membrane; assay type: cell membranes

Chain of Sigma non-opioid intracellular receptor 1 (Q9R0C9 whole entry): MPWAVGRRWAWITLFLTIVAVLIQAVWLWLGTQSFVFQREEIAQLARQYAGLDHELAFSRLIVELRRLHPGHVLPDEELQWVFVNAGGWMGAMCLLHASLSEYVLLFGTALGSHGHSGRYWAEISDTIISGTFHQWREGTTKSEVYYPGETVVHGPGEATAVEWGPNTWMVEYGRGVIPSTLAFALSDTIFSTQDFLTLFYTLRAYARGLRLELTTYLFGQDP

Row | SMILES | Ki [1] | Kd [2] | Ki [3] | Selectivity ratio [4] | Ki [5]
1 | [3H]C1CCCCC1([3H])N1CCN(CCCC2CCCc3c(OC)cccc32)CC1 (centres undefined) | 13.6 nM | 0.12 nM | – | – | –
2 | Cc1ccccc1NC(=N)Nc1ccccc1C [DITOLYLGUANIDINE] | – | – | 42 nM | – | –
3 | COc1cccc2c1CCCC2CCCN1CCN(C2CCCCC2)CC1 (centres undefined) | – | – | 0.57 nM | 40 | 0.34 nM
4 | [3H]C([3H])([3H])Oc1ccc(C)cc1C(=O)NCCCCN1CCc2cc(OC)c(OC)cc2C1 | – | 0.66 nM | – | – | –
5 | O=C(CCCN1CCC(O)(c2ccc(Cl)cc2)CC1)c1ccc(F)cc1 [HALOPERIDOL] | – | – | 5.85 nM | – | 7.38 nM
